Consider 5 compounds from patent publication US4980349A, “Sulphonamides derived from diarylmethanes, the processes for preparing them and pharmaceutical compositions containing them” (SANOFI, priority 1986, dated 1990).

Read-outs that look alike come from different tables or passages of the source.

For data set [1], the system named is rat hind foot carragheenin-induced oedema. Description: Carragheenin-induced oedema test. To be noted: 3 h, read-out: percentage inhibition of the inflammation; for change in vivo at 25 mg/kg: 25 mg/kg oral; for change in vivo at 50 mg/kg: 50 mg/kg oral; for change in vivo at 100 mg/kg: 100 mg/kg oral. Format: in vivo.
Another data set concerns thromboxane synthetase. Description: TXB2 production in human glomeruli (renal preparation model). Format: cell-based. Particulars: arachidonic acid 5 ug/ml. On the procedure: (§1) Human glomeruli synthesize both thromboxanes, via thromboxane synthetase, and prostaglandins, via prostacyclin synthetase. The experiment consists in stimulating glomerular cells with arachidonic acid (5 ug/ml) and in assaying radioimmunologically the amount of thromboxane B2 (TXB2) and prostacyclin (PGI2) produced in the presence of increasing concentrations of test products (10^-6 M to 5×10^-5 M).
(§2) As for the previous model, the results are expressed as IC50 in comparison with a control suspension.

The next data set is described as follows: Oral LD50 in mice. To be noted: mouse, in vivo, female Swiss CF mice, 20 g, 14 days observation, read-out: approximate oral LD50. On the procedure: (§3) The compounds were suspended in a 3% strength solution of gum arabic so as to supply, in a volume of 2 ml for the rats, the equivalent of 50, 100, 200, 400 and 800 mg/kg, and, in a volume of 1 ml for the mice, 100, 200, 400, 800 and 1,600 mg/kg and, for 1573 and 1579, 3,200 mg/kg.
(§4) Gavage was performed by means of a metal tube, on batches of 5 animals for each series.
(§5) The animals were observed daily for 14 days.

The test system of another data set is prostacyclin synthetase. Description: PGI2 production in human glomeruli (renal preparation model). The data set is classed as cell-based. To be noted: arachidonic acid 5 ug/ml. On the procedure: as §1, §2
A short description of the next data set: Oral LD50 in rats. To be noted: rat, in vivo, male Wistar rats, 200-400 g, 14 days observation, read-out: approximate oral LD50. On the procedure: as §3, §4, §5
Data set [2] deals with rat hind foot kaolin-induced oedema. The data set can be described thus: Kaolin-induced arthritis test, first experiment (decrease in inflammation, foot volume). Particulars: 1 h before kaolin, Table IX, read-out: percentage decrease in the inflammation. Format: in vivo. The procedure, abridged: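 Kaolin (0.05 ml of sterile 10% suspension) injected into metatarsal flexor sheath of rat hind foot; compounds given orally by stomach tube 1 h before. Foot volume measured by plethysmometer during early oedema (maximal 4–6 h). Value is % decrease in inflammation versus controls, mean of 10 animals per dose.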

Data set [3] concerns biosynthesis of leukotrienes C4 (LTC4), human polymorphonuclear leukocytes. Description: LTC4 production in human polymorphonuclear leukocytes. Format: cell-based. To be noted: Leukocyte, 0.25 h, ionophore A 23187 5 μM, 15 min, 37° C., read-out: IC50, inhibition of the production of LTC4. On the procedure:
Human polymorphonuclear Leukocytes are stimulated by calcium ionophore A 23187 (Calbiochem, 5 μM), in the presence or absence of the test products.
After 15 minutes' incubation at 37° C., assay of the leukotrienes C4 (LTC4) is performed radioimmunologically.
The results are expressed as IC50, the concentration producing 50% inhibition of the production of LTC4, by comparison with a control suspension which has not been incubated in the presence of the test products.

The subject of data set [4] is rat hind foot kaolin-induced arthritis. The data set can be described thus: Kaolin-induced arthritis test, second experiment, chronic phase (weight of the foot at the 12th hour). Particulars: po, 12 h, Table IXb; for change in vivo at 25 mg/kg / change in vivo at 50 mg/kg / change in vivo at 100 mg/kg: 12th hour, read-out: percentage significant decrease in the weight of the treated foot; for ED50: foot weight, read-out: 50% active dose. Format: in vivo. On the procedure:
The […] of 0.05 ml of a sterile 10% strength suspension of kaolin into the metatarsal flexor sheath of the hind foot of a rat initially induces an oedematous reaction. An inflammatory arthritis then forms.
The test products are administered orally (stomach tube) one hour before the injection of the kaolin.
In a second experiment, a more elaborate study was performed in order to ascertain the effect of the products, on the one hand on the acute phase of the inflammatory reaction (measured by the volume of the foot at the 8th hour), and on the other hand on the chronic phase (activity measured by the weight of the foot at the 12th hour).
As in the previous experiment, ketoprofen was used as the comparative product: […]

The test system of another data set is 5-lipoxygenase. The data set can be described thus: Production of LTB4 and 5-HETE by human leukocytes incubated with arachidonic acid. Format: cell-based. To be noted: ionophore A 23187 5 μM, arachidonic acid 10 μg/ml. On the procedure: Human polymorphonuclear leukocytes suspended with arachidonic acid and stimulated by calcium ionophore produce leukotrienes B4 (LTB4).
The test consists in incubating fresh human leukocytes with arachidonic acid at a dose of 10 μg/ml to which a tracer dose of tritium-labelled arachidonic acid has been added. The leukocytes are stimulated with calcium ionophore A 23187 (Calbiochem, 5 μM) and the amount of 5-hydroxyeicosatetraenoic acid (5-HETE) and LTB4 produced is then assayed by HPLC.
5-HETE is the metabolite produced from arachidonic acid by 5-lipoxygenase, and from which LTB4 is produced by the action of an isomerase.
The results are expressed as an integration of the surface of the peak obtained in HPLC by comparison with that obtained with control leukocytes which have not been incubated with the test products.
The results in brackets are expressed as a percentage inhibition of the production of 5-HETE and LTB4.

As usually defined, the IC50 is the point on the concentration scale where inhibition reaches its midpoint. Usually LD50 stands for the dose expected to kill half of the subjects tested.

Regarding `O=C(O)CCCCCCCCCCNS(=O)(=O)c1ccc(Cl)cc1C(=O)c1ccccc1` [Compound 1572, 11-(2-benzoyl-4-chlorobenzenesulphonamido)undecanoic acid], the change in vivo at 25 mg/kg in data set [1] (first experiment, Table X) is -18%; in data set [2] (25 mg/kg oral), -17%. Also, the change in vivo at 50 mg/kg was -25% in data set [1] (first experiment, Table X) and -26% in data set [2] (50 mg/kg oral). The change in vivo at 100 mg/kg in data set [1] (first experiment, Table X) is -49%; in [2] (100 mg/kg oral), -50%. The IC50 stood at 7 µM in the data set with thromboxane synthetase and 100 µM in the data set on prostacyclin synthetase. The LD50 at 336 h is more than 1600 mg/kg in “Oral LD50 in mice” and more than 800 mg/kg in “Oral LD50 in rats”.
For the compound `O=C(O)CCCCCCCCCCNS(=O)(=O)c1ccc(Cl)cc1C(=O)c1ccccc1Cl` [Compound 1574, 11-[2-(2-chlorobenzoyl)-4-chlorobenzenesulphonamido]undecanoic acid], the change in vivo at 25 mg/kg in data set [1] (second experiment, Table Xa) was -40%; in [4], -58 ± 5%. The change in vivo at 50 mg/kg is -43% in data set [1] (second experiment, Table Xa) and -60 ± 5% in data set [4]. For the same compound, the change in vivo at 100 mg/kg is -45% in data set [1] (second experiment, Table Xa) and -60 ± 5% in data set [4]. Also, the values for the IC50 (with thromboxane synthetase; in data set [3]; in the data set on prostacyclin synthetase) were 5 µM, 3 µM and 100 µM, respectively. For the same compound, the LD50 at 336 h in the data set “Oral LD50 in mice” was more than 1600 mg/kg. For the same compound, the ED50 in data set [4] is 25 mg/kg.
Consider `O=C(O)CCCCCCCCCCCNS(=O)(=O)c1ccc(Cl)c(C(=O)c2ccccc2)c1` [Compound 1736, 12-(3-benzoyl-4-chlorobenzenesulphonamido)dodecanoic acid], for which, in [1] (second experiment, Table Xa), the change in vivo at 25 mg/kg is -45%, the change in vivo at 50 mg/kg was -48% and the change in vivo at 100 mg/kg is -55%. The IC50 with thromboxane synthetase worked out at 2.6 µM. The half-inhibitory concentration (IC50) in data set [3] was 3 µM. Besides, the IC50 in the data set on prostacyclin synthetase was more than 50 µM. Besides, in the data set with 5-lipoxygenase, the “5-HETE, integration of the surface of the HPLC peak” value is listed as 384; the “percentage inhibition of the production of 5-HETE (in brackets)” value is recorded as 89.6%; the “percentage inhibition of the production of LTB4 (in brackets)” value stood at 100%. In data set [4], the change in vivo at 25 mg/kg is -45 ± 5%, the change in vivo at 50 mg/kg is -55 ± 5%, the change in vivo at 100 mg/kg is -58 ± 5% and the ED50 was determined as 50 mg/kg.
`O=C(O)CCCCCCCCCCNS(=O)(=O)c1ccc(Cl)cc1C(O)c1ccccc1Cl` (centres unmarked) [Compound 1796]: in [1] (second experiment, Table Xa), the change in vivo at 25 mg/kg is -45%, the change in vivo at 50 mg/kg was -48% and the change in vivo at 100 mg/kg was -55%. Besides, the IC50 in the data set with thromboxane synthetase was 3.2 µM. In addition, in data set [3], the IC50 was 1.7 µM. This compound also yielded an IC50 with prostacyclin synthetase of 50 µM. Besides, in the data set on 5-lipoxygenase, the “5-HETE, integration of the surface of the HPLC peak” value was 127 and the “LTB4, integration of the surface of the HPLC peak” value is listed as 152. Further, in data set [4], the change in vivo at 25 mg/kg was -50 ± 5%, the change in vivo at 50 mg/kg is -52 ± 5%, the change in vivo at 100 mg/kg was -58 ± 5% and the ED50 was determined as 25 mg/kg.
Turning to `O=C(O)CCCCCCCCCCNS(=O)(=O)c1ccc(Cl)cc1Cc1ccccc1Cl` [Compound 1797], in data set [1] (second experiment, Table Xa), the change in vivo at 25 mg/kg was -45%, the change in vivo at 50 mg/kg was -48% and the change in vivo at 100 mg/kg is -55%. The same compound gave an IC50 with thromboxane synthetase of 4.4 µM. The IC50 in data set [3] was 1 µM. For the same compound, the concentration for half-maximal inhibition (IC50) in the data set on prostacyclin synthetase is more than 50 µM. Moreover, in data set [4], the change in vivo at 25 mg/kg was -50 ± 5%, the change in vivo at 50 mg/kg was -58 ± 5%, the change in vivo at 100 mg/kg was -60 ± 5% and the ED50 was found to be 25 mg/kg.
